# Measured values as given in US20080107661A1, “MUC1 and ABL” (Dana-Farber Cancer Institute, Inc., priority 2006, published 2008).
# Where a name gives a salt, the structure may show the parent alone.
# Tests used:
# [1] = test system: MUC1-CD (purified MUC1 cytoplasmic domain, thrombin-cleaved from GST-MUC1-CD)
# HCT116 cells = assay: Assessment of apoptosis (sub-G1 DNA, propidium iodide, FACScan); format: cell-based, human; conditions: 10 μM STI571 with CDDP, 12 h
# [2] = test system: MUC1 (mucin 1), wild-type, expressed in cells as heterodimer of MUC1-N and MUC1-C
# [3] = test system: MUC1(Y60F), MUC1 with tyrosine 60 of the cytoplasmic domain changed to phenylalanine
# c-Abl = assay: Nuclear and cytosolic c-Abl in HeLa/vector and HeLa/MUC1 cells after genotoxic agents (subcellular fractionation, immunoblot); format: cell-based, human; conditions: 1 μM ADR, 2 hours
# Excerpt: (§1) Cell culture. Human HeLa cervical cancer cells, HCT116/vector (HCT116 colorectal carcinoma cells stably transfected with an empty vector), HCT116/MUC1 (HCT116 colorectal carcinoma cells stably transfected with an expression vector encoding a MUC1 polypeptide), HCT116/MUC1(Y46F) (HCT116 colorectal carcinoma cells stably transfected with an expression vector encoding a mutant MUC1 polypeptide containing an amino acid substitution at position 46 changing a tyrosine (Y) to phenylalanine (F)) colon cancer cells (Ren et al., (2002) J. Biol. Chem. 277: 17616-17622) and 293 cells were cultured in Dulbecco's modified medium with 10% heat-inactivated fetal bovine serum, 100 units/ml penicillin, 100 μg/ml streptomycin and 2 mM L-glutamine. Human ZR-75-1/vector (ZR-75-1 breast cancer cells stably transfected with an empty vector) and ZR-75-1/MUC1siRNA (ZR-75-1 breast cancer cells stably transfected with an expression vector encoding an siRNA specific for MUC1) breast cancer cells (Ren et al., (2004) Cancer Cell 5:163-175) were grown in RPMI1640 medium containing 10% heat-inactivated fetal bovine serum and antibiotics. Cells were treated with 1 μM adriamycin (ADR; Calbiochem), 100 μM cisplatin (CDDP; Sigma) or 10 μM STI571 (Gleevec; Novartis, Basel, Switzerland).
# Subcellular fractionation. Nuclear fractions were prepared as described (Kharbanda et al., (1996) Cancer Res. 56:3617-3621). Cytosolic fractions were prepared as described (Hill et al., (2004) EMBO J. 23:2134-2145). Cell membrane fractions were prepared with the Plasma Membrane Extraction Kit (BioVision Research Products, Mountain View, Calif.). Mitochondria were purified as described (Ren et al., (2004) Cancer Cell 5:163-175; Ren et al., (2006) Oncogene 25:20-31).
# Immunoprecipitations and immunoblot analysis. Cell lysates were prepared as described (Kharbanda et al., (1995) Nature 376:785-788); Yoshida et al., (2005) Nat. Cell Biol. 7:278-285). Soluble proteins were incubated with anti-MUC1-N (Kufe et al., (1984) Hybridoma 3:223-232), anti-MUC1-C (Ab5; Neomarker, Montreal, Quebec), anti-Flag (Sigma, St. Louis, Mo.), anti-c-Abl (Ab3; Oncogene, San Diego, Calif.) or anti-14-3-3 (Abcam Inc., Cambridge, Mass.) antibodies for 2 hours at 4° C., followed by precipitation with protein G-Sepharose beads for 1 hour. […] Intensity of the signals was determined by densitometric scanning. Statistical significance was determined by the Student's t-test.
# GFP-c-Abl = assay: Nuclear targeting of GFP-c-Abl in transiently transfected 293 cells; format: cell-based, human
# Excerpt: as §1
# Cell transfections. […]
molecule,measurement,setting,value
"GST-c-Abl(K-R) (GST fused to a kinase defective mutant c-Abl, lysine to arginine in the active site)","phosphorylation of MUC1-CD (in vitro kinase assay, 32P-ATP, SDS-PAGE and autoradiography)",[1],There was no detectable phosphorylation when MUC1-CD was incubated with a purified kinase-inactive c-Abl(K-R)
"Cc1ccc(NC(=O)c2ccc(CN3CCN(C)CC3)cc2)cc1Nc1nccc(-c2cccnc2)n1 [STI751, imatinib mesylate]",effect on CDDP-induced apoptosis (sub-G1 DNA),HCT116 cells; HCT116/MUC1(Y60F) cells,significantly attenuated
same,effect on CDDP-induced apoptosis (sub-G1 DNA),HCT116 cells; HCT116/MUC1 cells,no significant effect
same,effect on CDDP-induced apoptosis (sub-G1 DNA),HCT116 cells; HCT116/vector cells,significantly attenuated
GST-c-Abl (glutathione-S-transferase fused in frame with a wild-type c-Abl polypeptide),"phosphorylation of MUC1-CD (in vitro kinase assay, 32P-ATP, SDS-PAGE and autoradiography)",[1],Analysis of the reaction products by SDS-PAGE and autoradiography showed phosphorylation of MUC1-CD
same,"phosphorylation of MUC1-CD(Y60F) (in vitro kinase assay, 32P-ATP, SDS-PAGE and autoradiography)",MUC1-CD(Y60F),c-Abl phosphorylation was substantially decreased with the MUC1-CD(Y60F) mutant
"c-Abl (nonreceptor c-Abl tyrosine kinase), endogenous in human cell lines","c-Abl Thr-735 phosphorylation (anti-c-Abl precipitates, immunoblot anti-phospho-c-Abl-Thr-735)",[2],c-Abl Thr-735 phosphorylation was attenuated by expression of MUC1
same,"c-Abl Thr-735 phosphorylation (anti-c-Abl precipitates, immunoblot anti-phospho-c-Abl-Thr-735)",[3],"c-Abl Thr-735 phosphorylation was attenuated by expression of MUC1, but not MUC1(Y60F), in HCT116 cells"
"COc1cccc2c1C(=O)c1c(O)c3c(c(O)c1C2=O)C[C@@](O)(C(=O)CO)C[C@@H]3O[C@H]1C[C@H](N)[C@H](O)[C@H](C)O1 [ADR, adriamycin]",nuclear targeting of c-Abl,c-Abl; HeLa/MUC1 cells,little to no nuclear targeting of c-Abl
same,nuclear targeting of c-Abl,c-Abl; HeLa/vector cells,targeting of c-Abl to the nucleus
same,ADR-induced nuclear targeting of c-Abl,"GFP-c-Abl; GFP-c-Abl with coexpressed MUC1, 2 hours",attenuated by coexpression of MUC1
same,nuclear targeting of GFP-tagged c-Abl,"GFP-c-Abl; GFP-c-Abl without MUC1, ADR, 2 hours",increased by ADR treatment
